Columns and labels:
Assay type in all cases: in vivo
[1] = test system: normal Sprague Dawley rat; assay: Natriuretic response (Na+ and K+ urine excretion) after i.v. administration in a normal Sprague Dawley rat; conditions: for natriuretic response (Na+ excretion): 2 μg i.v., FIGS. 1-4
Experimental: A female Sprague Dawley rat (250 g) was anesthetized lightly with ether and a tail vein catheter was placed using PE10 tubing. Additionally, a urethra catheter was inserted using KY jelly and 2% lidocaine as a lubricant. The rat was restrained in a modified Plexiglas tube so that urine could be collected in 1.5-mL microcentrifuge tubes. Saline infusion started at time zero at 0.02 mL/min for the duration of the assay. The same i.v. catheter was used to inject the test compound. Synthetic xanthurenic acid 8-O-β-D-glucoside, 2 μg, was injected at the time indicated in a 1-mL volume in saline over the course of 10 minutes. The tubes were centrifuged at 14,000 rpm to separate any RBC's from the urine. Na^+ and K^+ concentrations in the urine were measured with respective ion selective electrodes. The Na^+ and K^+ excretion rates were calculated by: (vol of urine/time of collection period)×(ion urine concentration). […] Given an extracellular volume of 50 mL in a 250-g rat, the concentration of the test compound was […], a possible minimum dose.
(§1) A female Sprague Dawley rat (250 g) was anesthetized lightly with ether and a tail vein catheter was placed using PE10 tubing. Additionally, a urethra catheter was inserted using KY jelly and 2% lidocaine as a lubricant. The rat was restrained in a modified Plexiglas tube so that urine could be collected in 1.5-mL microcentrifuge tubes. Saline infusion started at time zero at 0.02 mL/min for the length of the assay. The same i.v. catheter was used to inject the test compound. Synthetic xanthurenic acid 8-O-β-D-glucoside, 10 μg i.v. was injected at the time indicated in a 1-mL volume in saline over the course of 10 minutes. At the indicated time the saline infusion was increased tenfold to 0.2 mL/min for ten minutes and returned to 0.02 mL/min for the duration of the assay. The tubes were centrifuged at 14,000 rpm to separate any RBC's from the urine. Na^+ and K^+ concentrations in the urine were measured with respective ion selective electrodes. The Na^+ and K^+ excretion rates were calculated by: (vol of urine/time of collection period)×(ion urine concentration).

[2] = test system: normal Sprague Dawley rat; assay: Natriuretic response (Na+ and K+ urine excretion) after oral administration in a normal Sprague Dawley rat
Experimental: A female Sprague Dawley rat (250 g) was anesthetized lightly with ether and a urethra catheter was inserted using KY jelly and 2% lidocaine as a lubricant. The rat was restrained in a modified Plexiglas tube so that urine could be collected in 1.5-mL microcentrifuge tubes. No saline infusion was administered. Synthetic xanthurenic acid 8-O-β-D-glucoside was injected with a feeding needle at the time indicated in a 1-mL volume of water over the course of 1 minute. […] The tubes were centrifuged at 14,000 rpm to separate any RBC's from the urine. Na^+ and K^+ concentrations in the urine were measured with respective ion selective electrodes. The Na^+ and K^+ excretion rates were calculated by: (vol of urine/time of collection period)×(ion urine concentration).
A female Sprague Dawley rat (250 g) was anesthetized lightly with ether and a urethra catheter was inserted using KY jelly and 2% lidocaine as a lubricant. The rat was restrained in a modified Plexiglas tube so that urine could be collected in 1.5-mL microcentrifuge tubes. No saline infusion was administered. Xanthurenic acid 8-O-sulfate was injected with a feeding needle at the time indicated in a 1-mL volume of water over the course of 1 minute. The tubes were centrifuged at 14,000 rpm to separate any RBC's from the urine. Na^+ and K^+ concentrations in the urine were measured with respective ion selective electrodes. The Na^+ and K^+ excretion rates were calculated by: (vol of urine/time of collection period)×(ion urine concentration).

[3] = test system: uremic Sprague Dawley rat; assay: Natriuretic response (Na+ and K+ urine excretion) after i.v. administration in a uremic Sprague Dawley rat
Source text: as §1, with “Female Sprague-Dawley rat, weighing 225 g, was made uremic by tying off one kidney and 30-50% of the second kidney. Two weeks later the” for “A female Sprague Dawley”, “was ready to test for natriuretic activity. The rat” for “(250 g)”, “isolated” for “the test compound. Synthetic”, “8-O-β-glucoside” for “8-O-β-D-glucoside, 10 μg i.v. was injected”, “At the indicated time the saline infusion was increased tenfold to 0.2 mL/min for ten minutes and returned to 0.02 mL/min for the duration of the assay.” left out
A female Sprague-Dawley rat, weighing 225 g, was made uremic by tying off one kidney and 30-50% of the second kidney. Two weeks later the rat was ready to test for natriuretic activity. The rat was anesthetized lightly with ether and a tail vein catheter was placed using PE10 tubing. Additionally, a urethra catheter was inserted using KY jelly and 2% lidocaine as a lubricant. The rat was restrained in a modified Plexiglas tube so that urine could be collected in 1.5-mL microcentrifuge tubes. Saline infusion started at time zero at 0.02 mL/min for the length of the assay. The same i.v. catheter was used to inject the test compound. Isolated xanthurenic acid 8-O-sulfate, 2 μg, was injected at the time indicated in a 1 mL volume in saline over the course of 10 minutes. Then saline infusion was returned to 0.02 mL/min for the duration of the assay. The tubes were centrifuged at 14,000 rpm to separate any RBC's from the urine. Na^+ and K^+ concentrations in the urine were measured with respective ion selective electrodes. The Na^+ and K^+ excretion rates were calculated by: (vol of urine/time of collection period)×(ion urine concentration).

[4] = i.v. administered sulfate, FIG. 19

O=C(O)c1cc(=O)c2cccc(O[C@@H]3OC(CO)[C@@H](O)[C@H](O)C3O)c2[nH]1 (stereo partly drawn) [xanthurenic acid 8-O-β-D-glucoside, Xanthurenic acid 8-O-β-D-glucoside]
natriuretic response (Na+ excretion) ([1]; synthetic compound, normal rat): caused a sustained natriuretic response | Na+ excretion rate before increase of saline infusion ([1]; 10 μg i.v., saline 0.02 mL/min, FIG. 6): 2 uEq/min | Na+ excretion rate after saline infusion increased tenfold ([1]; 10 μg i.v., saline 0.2 mL/min for 10 minutes, FIG. 6): 10 uEq/min | time after administration at which urine production decreased ([1]; 10 μg i.v., saline infusion 0.02 mL/min): 140 min | K+ excretion ([1]; 10 μg i.v., synthetic compound, normal rat): did not increase | natriuretic response ([1]; 10 μg i.v., synthetic compound, normal rat, FIGS. 5-8): caused a sustained natriuretic response | natriuresis ([1]; synthetic glucoside given subsequently to xanthurenic acid 2 ug i.v., normal rat): did cause natriuresis | natriuretic response ([2]; 10 μg oral, synthetic compound, normal rat, FIGS. 9-12): orally active | Na+ urine concentration reached ([2]; glucoside oral, normal rat, FIG. 11): 160 mM | K+ excretion ([2]; pretreatment with glucoside 10 μg oral followed by furosemide 100 μg oral, FIG. 10): did not increase K^+ excretion | furosemide-induced K+ excretion ([2]; pretreatment with glucoside 10 μg oral, furosemide 100 μg oral): inhibited | time of peak Na+ excretion ([3]; isolated glucoside 3 μg i.v., uremic rat, FIG. 13): 70 min | natriuretic response ([3]; isolated glucoside 3 μg i.v., uremic rat, FIGS. 13-16): caused a sustained natriuretic response | K+ excretion ([3]; isolated glucoside 3 μg i.v., uremic rat, FIGS. 14 and 15): did not increase | K+ excretion after furosemide ([3]; pretreatment with isolated glucoside 3 μg i.v. followed by furosemide 20 ug i.v., uremic rat, FIGS. 14 and 15): prevented the typical increase in K^+ excretion

O=C(O)c1cc(O)c2cccc(O)c2n1 [xanthurenic acid]
natriuretic response (Na+ excretion) ([1]; synthetic compound, normal rat): did not increase Na^+ excretion

O=C(O)c1cc(=O)c2cccc(OS(=O)(=O)O)c2[nH]1 [xanthurenic acid 8-O-sulfate, Xanthurenic Acid 8-O-sulfate]
Na+ urine concentration ([2]; 20 ug oral, synthetic sulfate, normal rat): below 50 mM | natriuretic response ([2]; 20 ug oral, synthetic sulfate, normal rat, FIGS. 21-24): not orally active | Na+ urine concentration after the increase [3, 4]: 160 mM | Na+ urine concentration before the increase [3, 4]: 60 mM | time until natriuresis approached control levels ([3]; isolated sulfate 2 μg i.v., uremic rat): ≤ 70 min | natriuretic response ([3]; isolated sulfate 2 μg i.v., uremic rat, FIGS. 17-20): caused sustained natriuretic response | time to peak of natriuresis ([3]; isolated sulfate 2 μg i.v., uremic rat, FIGS. 17 and 18): ≤ 30 min | K+ excretion ([3]; isolated sulfate 2 μg i.v., uremic rat, FIGS. 18 and 19): did not increase

Source: patent publication US8361734B2, “Xanthurenic acid derivative pharmaceutical compositions and methods related thereto” (Naturon, Inc., priority 2004, dated 2013)
